Test results: PubChem BioAssay AID1963431 (Molecular Pharmacology Branch, DTP, NCI, 2024)
Blank lines part the entries; values can stand above or below the compound they belong to.

Tested on: Rh18 complex spheroid viability, percent test/control
Assay: Anticancer human tumor Rh18 cell line growth inhibition [Asc];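 also: spheroids exposed to compound for 7 days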;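 as to viability, T/C: 100% = DMSO vehicle control wells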
Conditions: for IC50: curve of first compound; for viability, T/C: stronger effect = lower value
Summary of the method: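 Spheroid model: tumor line + HUVEC + hMSC. Single agents and combinations; top conc. at/near clinical Cmax (10 microM if undetermined), half-log dilutions. DMSO stocks at 800-fold test concentration.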

IC50 (second compound 0.1 µM): < 31.6 nM
IC50 (second compound 0.316 µM): < 31.6 nM
IC50 (second compound 1 µM): < 31.6 nM
IC50 (second compound 3.16 µM): < 31.6 nM
IC50 (second compound 10 µM): < 31.6 nM
Compound: C#Cc1c(F)ccc2cc(O)cc(-c3ncc4c(N5CC6CCC(C5)N6)nc(OCC56CCCN5CC(F)C6)nc4c3F)c12 (stereo not given) + Cc1c(S(C)(=O)=O)c(-c2cc(F)cc(N3CCN(c4ccc(NS(=O)(=O)c5ccc(NC(CCN6CCC(C(=O)OCCCP(=O)(O)O)CC6)CSc6ccccc6)c(S(=O)(=O)C(F)(F)F)c5)cc4)CC3)c2)c(-c2ccc(Cl)cc2)n1C(C)C
viability, T/C (second compound 0.1 µM, first compound 0.0316 µM): 14.1%
viability, T/C (second compound 0.1 µM, first compound 0.1 µM): 10.3%
viability, T/C (second compound 0.1 µM, first compound 0.316 µM): 12.1%
viability, T/C (second compound 0.1 µM, first compound 1 µM): 13%
viability, T/C (second compound 0.1 µM, first compound 3.16 µM): 15.7%
viability, T/C (second compound 0.1 µM, first compound 10 µM): 15.8%
viability, T/C (second compound 0.316 µM, first compound 0.0316 µM): 11%
viability, T/C (second compound 0.316 µM, first compound 0.1 µM): 10.6%
viability, T/C (second compound 0.316 µM, first compound 0.316 µM): 10.8%
viability, T/C (second compound 0.316 µM, first compound 1 µM): 8.98%
viability, T/C (second compound 0.316 µM, first compound 3.16 µM): 10.4%
viability, T/C (second compound 0.316 µM, first compound 10 µM): 12.9%
viability, T/C (second compound 1 µM, first compound 0.0316 µM): 8.64%
viability, T/C (second compound 1 µM, first compound 0.1 µM): 7.73%
viability, T/C (second compound 1 µM, first compound 0.316 µM): 8.18%
viability, T/C (second compound 1 µM, first compound 1 µM): 9.23%
viability, T/C (second compound 1 µM, first compound 3.16 µM): 8.77%
viability, T/C (second compound 1 µM, first compound 10 µM): 8.2%
viability, T/C (second compound 3.16 µM, first compound 0.0316 µM): 6.12%
viability, T/C (second compound 3.16 µM, first compound 0.1 µM): 6.59%
viability, T/C (second compound 3.16 µM, first compound 0.316 µM): 5.52%
viability, T/C (second compound 3.16 µM, first compound 1 µM): 4.57%
viability, T/C (second compound 3.16 µM, first compound 3.16 µM): 5.64%
viability, T/C (second compound 3.16 µM, first compound 10 µM): 6.94%
viability, T/C (second compound 10 µM, first compound 0.0316 µM): 5.81%
viability, T/C (second compound 10 µM, first compound 0.1 µM): 5.32%
viability, T/C (second compound 10 µM, first compound 0.316 µM): 2.97%
viability, T/C (second compound 10 µM, first compound 1 µM): 3.66%
viability, T/C (second compound 10 µM, first compound 3.16 µM): 2.62%
viability, T/C (second compound 10 µM, first compound 10 µM): 4.15%

IC50 (second compound 0.1 µM): < 9.49 nM
IC50 (second compound 0.316 µM): < 9.49 nM
IC50 (second compound 1 µM): < 9.49 nM
IC50 (second compound 3.16 µM): < 9.49 nM
IC50 (second compound 10 µM): < 9.49 nM
Compound: Cc1nc(N2CCC3(CC2)COC(C)C3N)c(CO)nc1Sc1ccnc(N)c1Cl (stereo not given) + Cc1c(S(C)(=O)=O)c(-c2cc(F)cc(N3CCN(c4ccc(NS(=O)(=O)c5ccc(NC(CCN6CCC(C(=O)OCCCP(=O)(O)O)CC6)CSc6ccccc6)c(S(=O)(=O)C(F)(F)F)c5)cc4)CC3)c2)c(-c2ccc(Cl)cc2)n1C(C)C
viability, T/C (second compound 0.1 µM, first compound 0.00949 µM): 11.9%
viability, T/C (second compound 0.1 µM, first compound 0.03 µM): 11.6%
viability, T/C (second compound 0.1 µM, first compound 0.0949 µM): 11.1%
viability, T/C (second compound 0.1 µM, first compound 0.3 µM): 7.3%
viability, T/C (second compound 0.1 µM, first compound 0.949 µM): 7.66%
viability, T/C (second compound 0.1 µM, first compound 3 µM): 5.44%
viability, T/C (second compound 0.316 µM, first compound 0.00949 µM): 8.93%
viability, T/C (second compound 0.316 µM, first compound 0.03 µM): 9.76%
viability, T/C (second compound 0.316 µM, first compound 0.0949 µM): 7.87%
viability, T/C (second compound 0.316 µM, first compound 0.3 µM): 5.11%
viability, T/C (second compound 0.316 µM, first compound 0.949 µM): 5.06%
viability, T/C (second compound 0.316 µM, first compound 3 µM): 4.22%
viability, T/C (second compound 1 µM, first compound 0.00949 µM): 7.05%
viability, T/C (second compound 1 µM, first compound 0.03 µM): 7.01%
viability, T/C (second compound 1 µM, first compound 0.0949 µM): 6.81%
viability, T/C (second compound 1 µM, first compound 0.3 µM): 4.44%
viability, T/C (second compound 1 µM, first compound 0.949 µM): 4.09%
viability, T/C (second compound 1 µM, first compound 3 µM): 2.1%
viability, T/C (second compound 3.16 µM, first compound 0.00949 µM): 4.29%
viability, T/C (second compound 3.16 µM, first compound 0.03 µM): 6.13%
viability, T/C (second compound 3.16 µM, first compound 0.0949 µM): 4.92%
viability, T/C (second compound 3.16 µM, first compound 0.3 µM): 3.71%
viability, T/C (second compound 3.16 µM, first compound 0.949 µM): 2.47%
viability, T/C (second compound 3.16 µM, first compound 3 µM): 2.4%
viability, T/C (second compound 10 µM, first compound 0.00949 µM): 4.54%
viability, T/C (second compound 10 µM, first compound 0.03 µM): 4.83%
viability, T/C (second compound 10 µM, first compound 0.0949 µM): 3.89%
viability, T/C (second compound 10 µM, first compound 0.3 µM): 3.77%
viability, T/C (second compound 10 µM, first compound 0.949 µM): 2.82%
viability, T/C (second compound 10 µM, first compound 3 µM): 1.96%
